BindingDB's records for doi:10.1021/jm301186p (Universidad De Zaragoza, 2012)

Test: Inhibition of aggregation of human DHFR-fused amyloid beta (1 to 42) expressed in yeast harboring erg6delta assessed as increase in yeast viability measured up to 20 hrs in presence of MTX

Compound: O=S(=O)(Nc1ccc(N2CCCCC2)cc1)c1cc(Cl)sc1Cl
- IC50: 0.7 µM

Compound: Cc1nc2sc3c(c2c(=O)o1)CCCC3
- IC50: 1.2 µM

Compound: O=C(Nc1ccccc1)Nc1ccc(Cl)cc1[N+](=O)[O-]
- IC50: 0.9 µM

Compound: Nc1c(S(=O)(=O)c2ccc(Cl)cc2)cnc2cc(-c3ccccc3)nn12
- IC50: 2.3 µM
